Measurements: US20230331707A1, “PROGRAMMED CELL NECROSIS INHIBITOR, PREPARATION METHOD THEREFOR, AND USE THEREOF” (Shanghai Institute of Organic Chemistry, Chinese Academy of …, priority 2020, published 2023)
Like-named read-outs stand apart in the source and are kept apart here.

Experiments:
[1] = system: MEFs cells expressing RIPK1 S161E mutant; assay: TSZ-induced programmed necrosis in MEFs cells expressing RIPK1 S161E mutant; type: cell-based, mouse; conditions: 10 μM
Excerpt: (§1) The adopted biological test protocol was: the effect of compounds on programmed necrosis in MEFs cells (mouse embryonic fibroblasts) with RIPK1 S161E mutation.
(§2) In order to verify the inhibitory effect of the compound of the present invention on the highly activated RIPK1 kinase at the cellular level, MEFs cells stably expressing RIPK1 S161E (simulating the activation state of RIPK1 after phosphorylation) were selected, TNFα-SM164-zVAD (Caspase inhibitor for inhibiting apoptosis) (TSZ) was used in combination to induce programmed cell necrosis, and cell viability was calculated by detecting chemiluminescence values, thereby obtaining the biological activity of the compound in inhibiting programmed necrosis.
(§3) Methods: MEFs cells replenished by RIPK1: WT-RIPK1, S161A-RIPK1 and S161E-RIPK1 were replenished in RIPK1 stable knockout cells respectively. After stable expression and being cultured to logarithmic growth phase, the cells were collected, and centrifuged at 1000 rpm for 5 min. The supernatant was discarded. Cell concentration was adjusted to 5×10^4/mL, and cells were inoculated into 384-well plates with 40 μL per well. Cell culture medium diluted SM164 (100 nM), zVAD (50 μM) and compound, each […], were added to the corresponding wells. After pretreatment at 37° C. for 1 h, 5 μL of cell culture medium diluted TNF (50 ng/mL) was added to each well in the stimulated group and 5 μL of culture medium was added to the control group. […] The unstimulated DMSO control wells (Ctrl) were taken as 100% cell viability. EC50 values of the compounds were calculated using Prism Graphpad statistical software.

[2] = system: MEFs cells expressing RIPK1 WT; assay: TSZ-induced programmed necrosis in MEFs cells expressing RIPK1 WT; type: cell-based, mouse; conditions: 10 μM
Excerpt: as §1, §2, §3

FADD−/− Jurkat cells = assay: Inhibition of TNF-induced programmed necrosis of FADD deficient Jurkat cells (Cell Titer-Glo viability); type: cell-based
Excerpt: (§4) The adopted biological assay protocol was: the effect of compounds on programmed necroptosis of TNF-induced FADD (Fas-Associated Death Domain) deficient Jurkat cells and L929 cells.
(§5) In order to verify the inhibitory effect of the compounds of the present invention on programmed cell necrosis at the cellular level, cell types that is closely related to the RIP1 pathway, namely FADD deficient Jurkat cells (human peripheral blood leukemia T cell strain) and L929 cells, were selected. Two different stimulation methods were used: tumor necrosis factor (TNFα) was used alone, or TNFα was used in combination with mitochondria-derived cysteine aspartate activator (SMAC) SM164. Cells viability was calculated by detecting chemiluminescence values, thereby obtaining the biological activity of the compound on the inhibition of programmed cell necrosis.
(§6) Methods: FADD deficient Jurkat cells: FADD deficient Jurkat cells (human peripheral blood leukemia T cell line) were cultured in vitro. After growing to the logarithmic growth phase, the cells were collected, centrifuged at 1000 rpm for 5 min, the supernatant was discarded, and the cell concentration was adjusted to 2.5×10^5/mL. Cells were seeded into 384-well plates, 40 μl per well. 5 μL of SM164 (50 nM) diluted in cell culture medium and 5 μL of each compound were added to the corresponding wells. After pretreatment at 37° C. for 1 h, 5 μL of TNFα (50 ng/mL) diluted in cell culture medium was added to each well of the stimulation group, and 5 μL of the culture medium was added to the control group. The plate was cultured in a cell incubator (37° C., 5% CO2) for 14 h, and […] of Cell Titer-Glo solution was added to each well, then incubated for 30 min at room temperature, and intracellular ATP level was measured by detecting luminescence. The unstimulated DMSO control wells were taken as 100% cell viability. L929 cells: The L929 cells (mouse fibroblasts) were cultured in vitro, digested and diluted to 6.25×10^4/ml, and the cells were seeded into 384-well plates, 40 μl per well. The plate was placed in a cell incubator (37° C., 5% CO2) for 12 hours. 5 μL of SM164 (500 nM) diluted in cell culture medium and 5 μL of each compound were added to the corresponding wells. After pretreatment at 37° C. for 1 h, 5 μL of TNFα (500 ng/mL) diluted in cell culture medium was added to each well of the stimulation group, and 5 μL of the culture medium was added to the control group. After the plate was cultured for 14 h in a cell incubator (37° C., 5% CO2), 15 μl of Cell Titer-Glo solution was added to each well. The plate was incubated at room temperature for 30 min, and intracellular ATP level was measured by detecting luminescence. The unstimulated DMSO control wells were taken as 100% cell viability. EC50 values of the compounds were calculated using Prism Graphpad statistical software.

L929 cells = assay: Inhibition of TNF-induced programmed necrosis of L929 cells (Cell Titer-Glo viability); type: cell-based, mouse
Excerpt: as §4, §5, §6

[3] = Liver microsomal stability test, mouse; type: in vitro ADME; conditions: mouse liver microsomes, NADPH, 37° C.; for half-life at 1 µM: mouse, liver microsomes, read-out: T1/2 (min) Mouse
Excerpt: (§7) The adopted biological test protocol was: testing the half-life of the compound in human- or mouse-derived liver microsomes.
(§8) Liver microsomes contain many enzymes involved in drug metabolism, especially cytochrome P-450, and therefore it is one of the major tissues involved in drug metabolism in living organisms. There are some correlations between the stability of the compound in liver microsomes and the pharmacogenetic stability thereof in vivo. Therefore, the relative stability of compounds in vivo can be roughly predicted by testing the half-life of different compounds in human- or mouse-derived liver microsomes. The specific methods were as follows:
(§9) Methods: 0.75 μL of 0.5 mM samples (compounds to be tested and control verapamil), 9.38 μL of 20 mg/mL liver microsomes (Human and Mouse) were taken and added to 239.88 μL PBS (on ice), and divided into 30 μL/tube samples respectively. The samples were incubated at 37° C. in a constant temperature water bath for 5 min, and then all samples were taken out. At zero-time, control group was added with 90 μL of ice acetonitrile first, and then added with 15 μL of 3 mM NADPH solution sequentially, and incubated at 37° C. in a constant temperature water bath. The corresponding samples were taken out after 5 min, 10 min, 20 min, 30 min and 60 min, respectively, and quenched by adding 90 μL of ice acetonitrile. All samples were centrifuged at 10000 rpm for 10 min, and the supernatants were taken and placed in a liquid phase vial waiting for LC-MS analysis.

[4] = Liver microsomal stability test, human; type: in vitro ADME; conditions: human liver microsomes, NADPH, 37° C.; for half-life at 1 µM: human, liver microsomes, read-out: T1/2 (min) Human
Excerpt: as §7, §8, §9

[5] = Homo sapiens, Jurkat, 14 h, FADD−/− Jurkat cells, stimulated with TNFα + SM164, read-out: EC50 (μM) FADD−/− Jurkat cells (human) TNFα + SM164
[6] = Mus musculus, L929, L929 cells, stimulated with TNFα + SM164, read-out: EC50 (μM) L929 cells (mouse) TNFα + SM164
[7] = Mus musculus, L929, L929 cells, stimulated with TNFα alone, read-out: EC50 (μM) L929 cells (mouse) TNFα
[8] = Homo sapiens, Jurkat, FADD−/− Jurkat cells, stimulated with TNFα alone, read-out: EC50 (μM) FADD−/− Jurkat cells (human) TNFα
[9] = FADD−/− Jurkat cells, stimulated with TNFα + SM164, read-out: EC50 (μM) FADD−/− Jurkat cells (human) TNFα + SM164
[10] = L929 cells, stimulated with TNFα + SM164, read-out: EC50 (μM) L929 cells (mouse) TNFα + SM164
[11] = L929 cells, stimulated with TNFα alone, read-out: EC50 (μM) L929 cells (mouse) TNFα

SMILES | EC50 (FADD−/− Jurkat cells; [5]) [nM] | EC50 (L929 cells; [6]) [µM] | EC50 (L929 cells; [7]) [µM] | EC50 (FADD−/− Jurkat cells; [8]) [nM] | half-life at 1 µM [3] [min] | half-life at 1 µM [4] [min] | also measured
CN1C(=O)[C@@H](NC(=O)c2n[nH]c(Cc3ccccc3)n2)COc2ccccc21 [GSK2982772, reference compound] | 4 | > 10 | 2.51 | – | – | – | inhibition of programmed necrosis [1]: only shows weak inhibition; inhibition of programmed necrosis [2]: can effectively inhibit the occurrence of programmed necrosis; EC50 (FADD−/− Jurkat cells; Homo sapiens, Jurkat, read-out: EC50 (μM) FADD−/− Jurkat cells (human) TNFα): 0.68 nM; inhibition of programmed necrosis (in words) (L929 cells; mouse-derived L929 cells): almost inactive
CN1C(=O)N[C@H](Cc2c[nH]c3c(Cl)cccc23)C1=O [Nec-1s, reference compound] | 900 | – | – | 228 | – | – | inhibition of programmed necrosis [1]: does not exhibit inhibition; inhibition of programmed necrosis [2]: can effectively inhibit the occurrence of programmed necrosis; EC50 (L929 cells; Mus musculus, L929, read-out: EC50 (μM) L929 cells (mouse) TNFα): 0.443 µM
CNC(=O)c1ccc2c(c1)ncn2-c1ccc(CNC(=O)c2cc(Cc3ccccc3)on2)cc1 [QY-6-16, 5-Benzyl-N-(4-(5-(methylcarbamoyl)-1H-benzo[d]imidazol-1-yl)benzyl) isoxazol-3-formamide] | 113 | 3.35 | 2.14 | 8.1 | 24.8 | 21.7 | –
CNC(=O)c1ccc2c(c1)ncn2-c1ccc(CNC(=O)c2noc(Cc3ccccc3)n2)cc1 [QY-7-14, 5-Benzyl-N-(4-(5-(methylcarbamoyl)-1H-benzo[d]imidazol-1-yl)benzyl)-1,2,4-oxadiazol-3-carboxamide] | 180 | 4.74 | 0.962 | 24.3 | 77 | 13.9 | –
CNC(=O)c1ccc2c(c1)ncn2-c1ccc(CN2CCc3cn(Cc4ccccc4)nc3C2=O)cc1 [QY-8-7] | 37.8 | > 10 | 3 | 10.8 | 12.2 | 46.2 | –
Cn1nc(C(=O)NCc2ccc(-n3cnc4c(N)ncnc43)cc2)cc1Cc1ccccc1 [QY-8-43, N-(4-(6-amino-9H-purin-9-yl)benzyl)-5-benzyl-1-methyl-1H-pyrazole-3-carboxamide] | – | – | – | – | 23.9 | 38.5 | EC50 (FADD−/− Jurkat cells; [9]): 17.7 nM; EC50 (FADD−/− Jurkat cells; FADD−/− Jurkat cells, stimulated with TNFα alone, read-out: EC50 (μM) FADD−/− Jurkat cells (human) TNFα): 2.85 nM; EC50 (L929 cells; [10]): 0.152 µM; EC50 (L929 cells; [11]): 0.0111 µM
CCn1nc(C(=O)NCc2ccc(-n3ccc4c(N)ncnc43)cc2)cc1Cc1ccccc1 [QY-9-33] | 1040 | > 10 | > 10 | 3.77 | 11.2 | 9.6 | –
CCn1nc(C(=O)NCc2ccc(-n3cnc4c(N)ncnc43)cc2)cc1Cc1ccccc1 [QY-9-34] | 3.52 | > 10 | 8.36 | 0.416 | 13.9 | 14.7 | –
Nc1ncnc2c1ccn2-c1ccc(CN2CCc3cn(Cc4ccccc4)nc3C2=O)cc1 [QY-9-41] | 234 | > 10 | > 10 | 21.5 | 36.5 | 38.5 | –
Nc1ncnc2c1ncn2-c1ccc(CN2CCc3cn(Cc4ccccc4)nc3C2=O)cc1 [QY-9-50] | 12.1 | 2.73 | 1.39 | 0.191 | 116 | 86.6 | –
CN1CCN(CCNC(=O)c2ccc3c(c2)ncn3-c2ccc(CNC(=O)c3cnn(C)c3Cc3ccccc3)cc2)CC1 [QY-11-69B] | 6.33 | 0.00108 | 0.000563 | 0.984 | 46.2 | 43.3 | –
Cn1ncc(C(=O)NCc2ccc(-n3cnc4c(N)ncnc43)cc2)c1Cc1ccccc1 [QY-11-78] | – | – | – | 0.036 | – | – | T1/2 (min) Mouse [3]: 23.9 min; T1/2 (min) Human [4]: 12.6 min; EC50 (FADD−/− Jurkat cells; [9]): 0.689 nM; EC50 (L929 cells; [10]): 0.0232 µM; EC50 (L929 cells; [11]): 0.00987 µM
CCn1nc(C(=O)NCc2ccc(-n3cnc4cc(C(=O)NC)ccc43)cc2)cc1Cc1ccccc1 [XHJ-4-36] | 42.8 | > 10 | 0.0107 | 5.91 | 10.7 | 46.2 | –
CNC(=O)c1ccc2c(c1)ncn2-c1ccc(CNC(=O)c2nnn(Cc3ccccc3)n2)cc1 [ZSQ-13-36] | 150 | 4.31 | 1.11 | 24 | 99 | 99 | –
Nc1ncnc2c1ncn2-c1ccc(CNC(=O)c2ccc(Cl)n2Cc2ccccc2)cc1 [ZSQ-21-18] | 80.6 | – | – | 6.57 | 30.1 | 8.6 | –
